The text below walks through data of patent US12344610B2, “APOL1 inhibitors and methods of use” (Maze Therapeutics, Inc., priority 2022, dated 2025).

Molecules are shown by their SMILES.

One assay deals with T1, APOL1 G2 (Homo sapiens, UniProt O14791, DEL388-389).
T1 construct: expressed in transfected cells; host or cells: HEK293 T-REx clonal line stably expressing GCaMP6f (HEK T-REx/GCaMP6f/APOL1 G2 K6.3), doxycycline induced
T1 sequence (O14791 with tags, fused parts or gaps DEL388-389): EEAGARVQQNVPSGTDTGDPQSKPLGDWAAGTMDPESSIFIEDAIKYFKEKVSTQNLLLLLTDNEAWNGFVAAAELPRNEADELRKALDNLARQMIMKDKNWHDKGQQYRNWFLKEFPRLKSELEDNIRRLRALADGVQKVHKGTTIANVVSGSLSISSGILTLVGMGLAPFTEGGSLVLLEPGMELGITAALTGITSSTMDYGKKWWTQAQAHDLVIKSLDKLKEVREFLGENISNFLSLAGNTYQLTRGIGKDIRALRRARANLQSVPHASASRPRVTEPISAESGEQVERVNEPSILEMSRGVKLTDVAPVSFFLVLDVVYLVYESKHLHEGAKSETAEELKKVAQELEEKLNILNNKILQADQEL
Description: APOL1-mediated calcium transport (calcium influx) assay, HEK T-REx/GCaMP6f/APOL1 G2 K6.3 cells, FLIPR TETRA. Format: cell-based. Particulars: prevention of calcium influx; geometric mean of at least 2 assay runs; † = average of a technical replicate from a single assay run. The method in brief:
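A HEK293 T-REx clone stably expressing GCaMP6f had APOL1 G2 induced with doxycycline (20 ng/mL solution added) for 6 h. Cells were then washed into Ca2+-free Tyrode's buffer (pH 7.4) and preincubated with compounds (duplicate 8-point) for 10 min at room temperature. Ca2+ injection to 5 mM final produced FLIPR GCaMP fluorescence, giving AC50 for influx inhibition (geometric mean, ≥2 runs).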

Assay [1] relates to HEK293 cells overexpressing APOL1 G2. Description: APOL1 G2 HEK293 cell rescue assay (reversal of cell death caused by overexpression of APOL1). Format: cell-based. To be noted: Homo sapiens, HEK293, HEK293 overexpressing APOL1 G2; geometric mean of at least 2 assay runs; † = single assay run. In outline: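 Each compound tested in duplicate wells on one plate per run, with values usually the geometric mean across at least two runs on different days, occasionally from one run only. Read-out: concentration giving half-maximal rescue of APOL1 G2 overexpression-induced death of HEK293 cells.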

For orientation: AC50 means the concentration giving half of the maximal activity seen. By EC50 is commonly meant the concentration at which the effect is half-maximal.

For the molecule `CC1(O)CC2(CN(c3ncc(OCCN4CCC5(CC4)C(=O)Nc4ccc(Cl)cc45)cn3)C2)C1` [Compound 459, 5-chloro-1′-{2-[(2-{6-hydroxy-6-methyl-2-azaspiro[3.3]heptan-2-yl}pyrimidin-5-yl)oxy]ethyl}-1,2-dihydrospiro[indole-3,4′-piperidin]-2-one], the concentration at half-maximal activity (AC50) at APOL1 G2 stood at 370 nM. Further, the 50% effective concentration (EC50) in assay [1] was 29 nM.

Consider `C[C@]1(O)C[C@@H](N2C(=O)C3(CC3)c3cc(OCCN4CCC5(CC4)C(=O)Nc4ccc(Cl)cc45)cnc32)C1` [Compound 460, 5-chloro-1′-(2-{2′-oxo-1′-[(cis)-3-hydroxy-3-methylcyclobutyl]-1′,2′-dihydrospiro[cyclopropane-1,3′-pyrrolo[2,3-b]pyridin]-5′-yloxy}ethyl)-1,2-dihydrospiro[indole-3,4′-piperidin]-2-one], for which, at APOL1 G2, the half-maximal activity concentration (AC50) came to 317 nM. Further, the 50% effective concentration (EC50) in assay [1] came out at 54.1 nM.

With `[2H]C([2H])([2H])[C@]1(O)C[C@@H](N2C(=O)CCc3cc(OCCN4CCC5(CC4)C(=O)Nc4ccc(Cl)cc45)cnc32)C1` [Compound 461, 5-chloro-1′-[2-({7-oxo-8-[(cis)-3-hydroxy-3-(^2H3)methylcyclobutyl]-5,6,7,8-tetrahydro-1,8-naphthyridin-3-yl}oxy)ethyl]-1,2-dihydrospiro[indole-3,4′-piperidin]-2-one], at APOL1 G2, the AC50 is 676 nM. Besides, the concentration for a half-maximal effect (EC50) in assay [1] amounted to 28.1 nM.

For `C[C@]1(O)C[C@@H](n2ncc3cc(OCCN4CCC5(CC4)C(=O)Nc4ccc(Cl)cc45)cc(C(F)(F)F)c32)C1` [Compound 464, 5-chloro-1′-[2-({1-[(cis)-3-hydroxy-3-methylcyclobutyl]-7-(trifluoromethyl)-1H-indazol-5-yl}oxy)ethyl]-1,2-dihydrospiro[indole-3,4′-piperidin]-2-one], the concentration at half-maximal activity (AC50) on APOL1 G2 came out at 1190 nM. Further, in assay [1], the 50% effective concentration (EC50) worked out at 5.02 nM.

Take `C[C@]1(O)C[C@@H](n2ncc3cc(OCCN4CCC5(CC4)C(=O)Nc4ccc(C#N)cc45)cc(C(F)(F)F)c32)C1` [Compound 465, 2-oxo-1′-[2-({1-[(cis)-3-hydroxy-3-methylcyclobutyl]-7-(trifluoromethyl)-1H-indazol-5-yl}oxy)ethyl]-1,2-dihydrospiro[indole-3,4′-piperidine]-5-carbonitrile]: the AC50 at APOL1 G2 was determined as 748 nM. Besides, in assay [1], the EC50 came to 8.86 nM.

With `C[C@]1(O)C[C@@H](n2c(=O)[nH]c3cc(OCCN4CCC5(CC4)C(=O)Nc4ccc(Cl)cc45)cc(C(F)(F)F)c32)C1` [Compound 468, 5-chloro-1′-[2-({2-oxo-1-[(cis)-3-hydroxy-3-methylcyclobutyl]-7-(trifluoromethyl)-2,3-dihydro-1H-1,3-benzodiazol-5-yl}oxy)ethyl]-1,2-dihydrospiro[indole-3,4′-piperidin]-2-one], the half-maximal activity concentration (AC50) at APOL1 G2 was found to be 867 nM. Moreover, the EC50 in assay [1] is 6.45 nM.

In the case of `C[C@]1(O)C[C@@H](n2c(=O)[nH]c3cc(OCCN4CCC5(CC4)C(=O)Nc4ccc(C#N)cc45)cc(C(F)(F)F)c32)C1` [Compound 470, 2-oxo-1′-[2-({2-oxo-1-[(cis)-3-hydroxy-3-methylcyclobutyl]-7-(trifluoromethyl)-2,3-dihydro-1H-1,3-benzodiazol-5-yl}oxy)ethyl]-1,2-dihydrospiro[indole-3,4′-piperidine]-5-carbonitrile], the AC50 at APOL1 G2 worked out at 1110 nM. Also, the EC50 in assay [1] is 179 nM.
